Where a name gives a salt, the structure may show the parent alone. Read-outs that look alike come from different tables or passages of the source.
Key:
[1] = target: T1, CYP3A4 (Homo sapiens, UniProt P08684); experiment: biochemical
[2] = target: T2, human CYP2D6 (Homo sapiens, UniProt P10635)
[3] = target: T3, human CYP2C19 (Homo sapiens, UniProt P33261)
[4] = target: T4, human CYP2C9 (Homo sapiens, UniProt P11712); experiment: biochemical
[5] = target: T5, human CYP1A2 (Homo sapiens, UniProt P05177)
T5 sequence (P05177 1-516): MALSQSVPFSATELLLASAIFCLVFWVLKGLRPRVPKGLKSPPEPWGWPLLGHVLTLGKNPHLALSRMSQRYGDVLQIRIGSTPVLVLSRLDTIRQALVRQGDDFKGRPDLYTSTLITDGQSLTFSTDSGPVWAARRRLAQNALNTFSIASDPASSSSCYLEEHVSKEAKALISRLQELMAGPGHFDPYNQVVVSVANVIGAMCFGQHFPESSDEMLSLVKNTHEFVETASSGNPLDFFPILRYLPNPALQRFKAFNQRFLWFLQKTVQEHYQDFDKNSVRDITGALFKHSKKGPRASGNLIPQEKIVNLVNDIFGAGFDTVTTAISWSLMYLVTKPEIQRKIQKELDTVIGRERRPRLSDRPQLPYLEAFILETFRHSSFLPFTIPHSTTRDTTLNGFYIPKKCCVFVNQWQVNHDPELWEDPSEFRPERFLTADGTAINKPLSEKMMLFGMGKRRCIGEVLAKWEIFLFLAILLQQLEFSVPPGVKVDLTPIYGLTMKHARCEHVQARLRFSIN

[6] = target: T3, human CYP2C19; experiment: biochemical
[7] = target: T2, human CYP2D6; experiment: biochemical; conditions: CYP2D6 IC50 (half-maximal inhibitory concentration)
[8] = target: T1, CYP3A4
[9] = target: Photinus pyralis (firefly) luciferase (Photinus pyralis, UniProt P08659); experiment: biochemical; type: biochemical
Sequence of Photinus pyralis (firefly) luciferase (P08659 whole entry): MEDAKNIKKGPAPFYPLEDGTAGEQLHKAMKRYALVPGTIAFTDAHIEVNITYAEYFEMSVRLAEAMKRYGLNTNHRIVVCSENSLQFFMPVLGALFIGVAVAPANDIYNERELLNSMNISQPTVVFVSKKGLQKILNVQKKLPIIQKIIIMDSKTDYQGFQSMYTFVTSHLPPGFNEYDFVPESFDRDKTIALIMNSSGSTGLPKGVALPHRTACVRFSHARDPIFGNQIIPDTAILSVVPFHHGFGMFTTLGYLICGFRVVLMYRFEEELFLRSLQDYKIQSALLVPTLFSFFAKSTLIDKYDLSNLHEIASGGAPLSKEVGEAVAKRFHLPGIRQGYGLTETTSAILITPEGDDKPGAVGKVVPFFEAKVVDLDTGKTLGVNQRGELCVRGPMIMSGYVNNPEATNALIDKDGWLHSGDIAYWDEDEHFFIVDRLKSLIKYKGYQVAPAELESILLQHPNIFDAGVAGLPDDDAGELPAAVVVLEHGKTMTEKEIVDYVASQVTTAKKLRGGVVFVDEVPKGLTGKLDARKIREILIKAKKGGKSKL

[10] = target: T4, human CYP2C9; conditions: human
[11] = target: T5, human CYP1A2; experiment: biochemical; conditions: CYP1A2 IC50 (half-maximal inhibitory concentration)
[12] = CYP3A4 AC50 (half-maximal activity concentration)
[13] = CYP2C9 AC50 (half-maximal activity concentration)
[14] = CYP2C19 AC50 (half-maximal activity concentration)

T4 sequence (P11712 whole entry): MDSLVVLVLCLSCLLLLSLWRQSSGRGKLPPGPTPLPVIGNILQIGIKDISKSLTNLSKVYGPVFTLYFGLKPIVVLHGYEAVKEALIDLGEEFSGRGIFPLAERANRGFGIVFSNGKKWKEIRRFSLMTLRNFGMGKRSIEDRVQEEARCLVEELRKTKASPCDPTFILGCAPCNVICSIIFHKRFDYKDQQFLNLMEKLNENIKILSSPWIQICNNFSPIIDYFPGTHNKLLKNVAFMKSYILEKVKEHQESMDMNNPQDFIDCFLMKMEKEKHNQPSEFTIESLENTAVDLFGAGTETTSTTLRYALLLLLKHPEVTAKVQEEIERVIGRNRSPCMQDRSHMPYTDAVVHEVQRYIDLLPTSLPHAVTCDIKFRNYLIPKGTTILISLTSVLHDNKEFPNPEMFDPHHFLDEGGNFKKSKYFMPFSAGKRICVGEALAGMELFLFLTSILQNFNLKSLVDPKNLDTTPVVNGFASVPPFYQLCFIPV
T3 sequence (P33261 whole entry): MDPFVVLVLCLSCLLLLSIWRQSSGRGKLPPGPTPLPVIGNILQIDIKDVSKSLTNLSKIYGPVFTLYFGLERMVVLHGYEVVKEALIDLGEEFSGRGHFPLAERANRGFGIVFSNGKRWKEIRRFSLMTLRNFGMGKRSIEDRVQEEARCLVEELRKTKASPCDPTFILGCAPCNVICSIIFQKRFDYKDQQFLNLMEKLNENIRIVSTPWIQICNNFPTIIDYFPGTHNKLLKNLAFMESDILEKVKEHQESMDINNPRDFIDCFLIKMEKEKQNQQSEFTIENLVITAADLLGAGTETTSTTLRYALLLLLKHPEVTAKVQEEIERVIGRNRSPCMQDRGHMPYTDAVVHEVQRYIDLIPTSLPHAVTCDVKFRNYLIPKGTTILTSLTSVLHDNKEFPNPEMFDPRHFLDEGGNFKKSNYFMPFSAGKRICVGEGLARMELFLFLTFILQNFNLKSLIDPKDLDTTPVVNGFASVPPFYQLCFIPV
T1 sequence (P08684 whole entry): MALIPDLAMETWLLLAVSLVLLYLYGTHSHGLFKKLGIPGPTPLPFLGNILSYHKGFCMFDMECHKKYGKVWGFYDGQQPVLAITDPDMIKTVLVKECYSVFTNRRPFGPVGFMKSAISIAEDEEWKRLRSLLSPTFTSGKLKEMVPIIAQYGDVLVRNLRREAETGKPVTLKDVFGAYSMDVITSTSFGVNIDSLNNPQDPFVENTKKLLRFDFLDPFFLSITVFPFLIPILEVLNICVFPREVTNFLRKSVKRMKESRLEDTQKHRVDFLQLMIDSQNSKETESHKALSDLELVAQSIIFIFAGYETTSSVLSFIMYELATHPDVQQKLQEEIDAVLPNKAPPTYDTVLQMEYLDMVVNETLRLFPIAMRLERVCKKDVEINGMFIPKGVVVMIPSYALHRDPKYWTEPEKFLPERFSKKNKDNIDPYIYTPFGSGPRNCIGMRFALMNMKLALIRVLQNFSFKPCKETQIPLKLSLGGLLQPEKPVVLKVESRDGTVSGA
T2 sequence (P10635 whole entry): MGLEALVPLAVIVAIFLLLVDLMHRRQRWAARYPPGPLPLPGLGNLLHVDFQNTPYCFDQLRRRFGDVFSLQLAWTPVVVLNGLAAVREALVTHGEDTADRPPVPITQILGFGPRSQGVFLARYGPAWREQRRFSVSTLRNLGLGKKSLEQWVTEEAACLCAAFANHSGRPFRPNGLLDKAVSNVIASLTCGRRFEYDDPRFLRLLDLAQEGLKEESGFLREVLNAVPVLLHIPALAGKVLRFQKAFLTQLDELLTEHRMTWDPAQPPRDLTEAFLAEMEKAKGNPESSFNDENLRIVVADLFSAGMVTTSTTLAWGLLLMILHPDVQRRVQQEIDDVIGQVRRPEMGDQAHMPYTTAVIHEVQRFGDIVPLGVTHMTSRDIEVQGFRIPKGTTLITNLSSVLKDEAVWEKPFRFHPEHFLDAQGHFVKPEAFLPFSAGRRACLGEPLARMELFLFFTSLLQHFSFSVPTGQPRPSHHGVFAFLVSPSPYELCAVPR

Row | Structure (SMILES) | AC50 [1, 12] [µM] | CYP2D6 AC50 (half-maximal activity concentration) [2] | CYP2C19 AC50 (half-maximal activity concentration) [3] | AC50 [4, 13] [µM] | CYP1A2 AC50 (half-maximal activity concentration) [5] | other results
1 | Clc1ccccc1-c1ccccc1Cl [2,2'-Dichlorobiphenyl] | 14.6 | Inactive | Inconclusive activator | 39 | Inconclusive inhibitor | 
2 | CC(=O)OC(c1ccccc1)C(Cl)(Cl)Cl (stereo not drawn) [2,2,2-Trichloro-1-phenylethyl acetate] |  | Inactive |  |  | Inactive | AC50 [1]: 23.9 µM; AC50 [6]: 35.6 µM; AC50 [4]: 71.3 µM
3 | CC(Oc1cc(Cl)c(Cl)cc1Cl)C(=O)O (stereo not drawn) [2-(2,4,5-Trichlorophenoxy)propionic acid] | 76.9 | Inactive | Inactive | 28.4 | Inactive | 
4 | O=C(O)c1cc(Cl)cc(Cl)c1O [3,5-Dichlorosalicylic acid] |  | Inactive | Inactive |  | Inconclusive inhibitor | AC50 [1]: 37 µM; AC50 [4]: 28.3 µM
5 | O=C1OC2(c3ccccc31)c1ccc(O)c(Br)c1Oc1c2ccc(O)c1Br [4',5'-Dibromofluorescein] |  | Inactive |  |  | Inconclusive inhibitor | AC50 [1]: 27.2 µM; AC50 [6]: 53.7 µM; AC50 [4]: 46.2 µM
6 | NNS(=O)(=O)c1ccc(Oc2ccc(S(=O)(=O)NN)cc2)cc1 [4,4'-Oxybis(benzenesulfonhydrazide)] |  | Inconclusive inhibitor |  |  | Inactive | AC50 [1]: 7.84 µM; AC50 [6]: 16.8 µM; AC50 [4]: 6 µM
7 | C[C@]12CCC(=O)C=C1CC[C@@H]1[C@@H]2CC[C@]2(C)C(=O)CC[C@@H]12 [4-Androstene-3,17-dione] | 8.36 | Inconclusive inhibitor |  | 71.9 | Inactive | AC50 [6, 14]: 33.3 µM
8 | CCOCN(C(=O)CCl)c1c(C)cccc1CC [Acetochlor] | 8.35 | Inactive |  | 31.2 | Inconclusive inhibitor | AC50 [6, 14]: 9.51 µM
9 | N#Cc1cc(Br)c(O)c(Br)c1 [Bromoxynil] | 29.6 | Inactive | Inactive | 18.7 | Inactive | 
10 | Cc1ccc(S(=O)(=O)NCl)cc1 [Chloramine-T trihydrate] | 67.9 | Inactive | Inconclusive inhibitor | 81.6 | Inconclusive inhibitor | 
11 | CC(=O)OCC(=O)[C@@]12N=C(C)O[C@@H]1C[C@H]1[C@@H]3CCC4=CC(=O)C=C[C@]4(C)[C@H]3[C@@H](O)C[C@@]12C [Deflazacort] | 13.2 | Inactive | Inactive | 60.9 | Inactive | 
12 | CCC(=O)Oc1ccc(/C(CC)=C(\CC)c2ccc(OC(=O)CC)cc2)cc1 [Diethylstilbestrol dipropionate] | 22.9 | Inactive | Inactive | 21.2 | Inactive | 
13 | CC(=O)OCC(=O)[C@@]1(OC(C)=O)[C@@H](C)C[C@H]2[C@@H]3C[C@H](F)C4=CC(=O)C=C[C@]4(C)[C@@]3(F)[C@@H](O)C[C@@]21C [Diflorasone diacetate] | 4.74 | Inactive | Inconclusive activator | 19 | Inactive | 
14 | CC(C)COC(=O)CCCCC(=O)OCC(C)C [Diisobutyl adipate] |  | Inactive | Inactive |  | Inconclusive inhibitor | AC50 [1]: 11.7 µM; AC50 [4]: 38 µM
15 | CN(C(=O)C(Cl)Cl)c1ccc(OC(=O)c2ccco2)cc1 [Diloxanide furoate] | 25.3 | Inconclusive | Inconclusive inhibitor | 15.5 | Inactive | 
16 | O=C(NC(=O)c1c(F)cccc1F)Nc1ccc(Oc2ccc(C(F)(F)F)cc2Cl)cc1F [Flufenoxuron] | 18.6 | Inactive | Inconclusive | 17.8 | Inactive | 
17 | Cc1ccc(Cl)c(Nc2ccccc2C(=O)O)c1Cl [Meclofenamate sodium] | 38.9 | Inconclusive inhibitor | Inactive | 24.2 | Inactive | 
18 | Cc1cccc(Nc2ccccc2C(=O)O)c1C [Mefenamic acid] | 73.9 | Inactive | Inconclusive inhibitor | 33 | Inconclusive inhibitor | 
19 | C[C@]12C=CC(=O)C=C1CC[C@@H]1[C@@H]2CC[C@@]2(C)[C@H]1CC[C@]2(C)O [Methandrostenolone] | 2.65 | Inactive | Inactive | 34.7 | Inactive | 
20 | O=C(O)C(F)(F)C(F)(F)C(F)(F)C(F)(F)C(F)(F)C(F)(F)F [Perfluoroheptanoic acid] | 65.8 | Inactive | Inactive | 6.33 | Inactive | 
21 | O=C(O)c1ccccc1C(c1ccc(O)cc1)c1ccc(O)cc1 [Phenolphthalin] | 30.1 | Inactive | Inactive | 56.6 | Inconclusive inhibitor | 
22 | C[C@@H]1O[C@@H](O[C@@H]2C=C3CC[C@@H]4[C@H](CC[C@]5(C)[C@@H](c6ccc(=O)oc6)CC[C@]45O)[C@@]3(C)CC2)[C@H](O)[C@H](O)[C@H]1O [Proscillaridin] | 33.4 | Inactive | Inconclusive activator |  | Inactive | 
23 | Cc1c(C(=O)NN2CCCCC2)nn(-c2ccc(Cl)cc2Cl)c1-c1ccc(Cl)cc1 [Rimonabant] |  |  |  |  | Inactive | AC50 [1]: 4.96 ± 0.93 µM
24 | CCCCCCCCCCOS(=O)(=O)O [Sodium decyl sulfate] |  | Inconclusive inhibitor | Inactive |  | Inactive | AC50 [1]: 85.8 µM; AC50 [4]: 38.5 µM
25 | O=C(O)Cc1cc(I)c(Oc2cc(I)c(O)c(I)c2)c(I)c1 [Tetrac] |  | Inactive | Inactive |  | Inactive | AC50 [1]: 9.83 µM; AC50 [4]: 46.5 µM
26 | CC[C@H]1OC(=O)[C@H](C)[C@@H](O[C@H]2C[C@@](C)(OC)[C@@H](O)[C@H](C)O2)[C@H](C)[C@@H](O[C@@H]2O[C@H](C)C[C@H](N(C)C)[C@H]2O)[C@](C)(O)C[C@@H](C)C(=O)[C@H](C)[C@@H](O)[C@]1(C)O [erythromycin, reference compound] |  |  |  |  |  | IC50 ([1]; IC50 CYP3A4 assay): 0.3 µM
27 | Clc1ccc(C(c2ccc(Cl)cc2)C(Cl)Cl)cc1 [p,p'-DDD] |  |  |  |  |  | IC50 [7]: 59 µM; CYP2D6 Efficacy (in parenthesis) ([2]; human): 59 ± 16.44 (-79 ± 23) %; CYP3A4 IC50 (half-maximal inhibitory concentration) [8]: Inactive; Luciferase IC50 (half-maximal inhibitory concentration) [9]: Inactive; IC50 ([6]; CYP2C19 IC50 (half-maximal inhibitory concentration)): 0.12 µM; CYP2C9 Efficacy (in parenthesis) [10]: 5.55 ± 0.76 (-100 ± 3) %; CYP2C19 Efficacy (in parenthesis) ([3]; human): 0.12 ± 0.06 (-136 ± 7) %; IC50 ([4]; CYP2C9 IC50 (half-maximal inhibitory concentration)): 5.55 µM; CYP1A2 Efficacy (in parenthesis) ([5]; human): 6.46 ± 0.74 (-96 ± 1) %; IC50 [11]: 6.46 µM

— article PMC12155096 (International Journal of Molecular Sciences, 2025)
